# Data reported in US8586307B2, “Methods for diagnosing epigenetic, transgenerational effects of environmental toxicants on mammalian germ-lines and treating associated diseases” (priority 2005, dated 2013).
# Tests used:
# NCAM1 = experiment: Semi-quantitative PCR of NCAM1 expression in adult brain; format: in vivo, rat; conditions: F3 generation males vs control
# Method: The expression of one of the known genes nearest an altered methylation site identified candidate #1 (NCAM1), is primarily brain specific. An analysis of gene expression for NCAM in the brain was performed. Brains from adult control and vinclozolin F3 generation males were isolated, and RNA was prepared. Four control and five vinclozolin F3 generation animals were analyzed separately. […] This decreased expression of NCAM1 was quantitated, and over a 10-fold reduction in expression was observed between control and vinclozolin F3 generation males, FIG. 15C. Therefore, the hypermethylation of the candidate #1 site in sperm DNA was associated with a reduction in NCAM1 expression in the adult male brain, in vinclozolin F3 generation animals.
# E16 testis = experiment: Microarray gene expression analysis of embryonic testis; format: in vivo, rat; conditions: F1 and F2 generation E16 testis vs control
# Source text: Microarray analysis: RNA was collected from embryonic day […] 16 (E16) testis from control and E16 vinclozolin F1 and F2 generation animals as described above for Example I. RNA was hybridized to the Affymetrix (Affymetrix, Santa Clara, Calif.) rat 230A gene chip. The Genomics Core in the Center for Reproductive Biology at Washington State University, Pullman, Wash., performed the analysis as previously described, and incorporated by reference herein [149, 150]. Briefly, RNA from the cells was reverse transcribed into cDNA then was transcribed into biotin labeled RNA. Biotin labeled RNA was then hybridized to the Affymetrix rat 230A gene chips. Each gene set is composed of 16 pairs of […] oligonucleotides, with one sense strand specific for the gene and one anti-sense strand with single point mutations for use as a comparative negative control. Biotinalated RNA was then visualized by labeling with phycoerythrin-coupled avidin. The microarray was scanned on a Hewlett-Packard Gene Array Scanner (Hewlett-Packard Co., Palo Alto, Calif.).
# Bioinformatics: The majority of the data analysis was performed using the Affymetrix Microarray Suite Software (Affymetrix, Santa Clara, Calif.). […] Basic expression analysis was determined by accessing the Affymetrix database through the Microarray Suite Software. […]
smiles,measurement,setting,value
C=CC1(C)OC(=O)N(c2cc(Cl)cc(Cl)c2)C1=O (stereo not drawn) [vinclozolin],reduction in NCAM1 expression,NCAM1,> 10 fold
same,"expression of Fadd, Pbm1b, Rps12 and Waspip",E16 testis,increased expression
same,"expression of ankyrin 28, Ncstn, Rab12 and Lrrn6a",E16 testis,reduced expression
